# Patent US11733232B2, “Method for producing disease modeling non-human animal, disease modeling non-human animal, and method for screening drug and method for determining risk of disease using the same” (National University Corporation Hokkaido University, priority 2017, dated 2023)
# How the values were obtained:
# Format in all cases: in vivo, C57BL/6 mice
# [1] = system: PVN and DMH neurons; assay: Anti-phosphorylated cfos immunostaining of the hypothalamus (PVN and DMH) after microinjection at the specific blood vessels; conditions: 2 days after
# From the text: Then, whether local inflammation in the brain causes a disease was investigated by directly injecting an inflammatory cytokine at the specific blood vessels. The head of a C57BL/6 mouse with induction of sleep disorder or a control mouse was fixed to a stereotactic device under anesthesia, fur above the skull was shaved, and the skin was cleaned with 70% ethanol. A 30-gauge needle was lowered toward the specific blood vessels (coordinates: AP −1.06 mm; ML 1 mm; DV 2.25 mm), and EAE-pathogenic CD4 positive T cells (1×10^6 cells)+bone marrow derived dendritic cells pulsed with MOG (5×10^5 cells), IFN-γ (50 ng; PeproTech, Inc.)+IL-17A (50 ng; R&D Systems, Inc.), or IL-6 (50 ng; Toray Industries, Inc.)+IL-17A (50 ng) in 0.2 μL each were microinjected over 90 seconds as described previously (Kim et al. (2011), Mol. Brain, 19, 4-6). […]
# (§1) Furthermore, at the specific blood vessels of mice in which sleep disorder was induced, IL-6 and IL-17A, with or without a selective antagonist for P2X receptor which is an ATP receptor, A438079 (1 μg), were microinjected, in the same way as in the Example 3 (2). Phosphorylated cfos in the third ventricular region, bloody stool scores, and mortality were evaluated 2 days after the microinjection, and the results are shown in FIG. 34 and FIG. 35. […]
# [2] = system: C57BL/6 mouse with induction of sleep disorder; assay: Microinjection at the specific blood vessels of mice with induced sleep disorder: mortality and bloody stool scores; conditions: 1 μg microinjected together with IL-6 and IL-17A at the specific blood vessels, 2 days after
# Description: (§2) Pathological conditions of gastroenteritis in the mice prepared in Example 1 (1) were evaluated on 10 days after the transfer of EAE-pathogenic CD4 positive T cells. Stools collected from each mouse were suspended in saline (20 mL/g stool), the supernatants obtained by centrifugation (8000 rpm, 5 minutes) were diluted to 10 times with saline, and fecal occult blood test was performed with Hemastix (Registered) (Siemens Healthcare Pty, Ltd.). Bloody stool scores were calculated according to the scoring method described on the package of Hemastix.
# Then, whether local inflammation in the brain causes a disease was investigated by directly injecting an inflammatory cytokine at the specific blood vessels. The head of a C57BL/6 mouse with induction of sleep disorder or a control mouse was fixed to a stereotactic device under anesthesia, fur above the skull was shaved, and the skin was cleaned with 70% ethanol. […]
# as §1
# [3] = system: mice in which sleep disorder was induced followed by transfer of EAE-pathogenic CD4 positive T cells; assay: Pathological conditions (EAE clinical score, mortality, fecal occult blood) of disease modeling mice
# Description: Loading PAWW stress and induction of sleep disorder thereby were performed as described previously (Miyazaki, K. et al., PloS one, 2013, 8, e55452). 6-8 weeks old C57BL/6 mice were individually maintained in plastic cages with running wheels for habituation. Then, through loading PAWW stress by replacing wood beddings in the cages with water having depth of 1.5 cm to make the mice exercise continuously on the wheel for 2 days, sleep disorder was induced in the mice.
# Preparation and transfer of EAE-pathogenic CD4 positive T cells were performed as described previously (Arima, Y. et al., Cell., 2012, 148, 447-457; Arima, Y. et al., eLife, 2015, 4, e08733; Ogura, H. et al., Immunity, 2008, 29, 628-636). Briefly, C57BL/6 mice were injected subcutaneously with a MOG (35-55) peptide (Sigma-Aldrich Co. LLC.) together with complete Freund's adjuvant (Sigma-Aldrich Co. LLC.) at the base of the tail, then 0, 2, and 7 days after MOG peptide injection, the mice were further injected intravenously with pertussis toxin (Sigma-Aldrich Co. LLC.). 9 days after MOG peptide injection, lymphocytes were collected from the spleens of the mice, sorted with anti-CD4 microbeads (Miltenyi Biotec, Inc.) to obtain a cell population rich in CD4 positive T cells. The resulting cell population (4×10^6 cells) was co-cultured with MOG peptide-pulsed irradiated spleen cells (1×10^7 cells) for 2 days in the presence of rIL-23 (10 ng/mL; R & D Systems, Inc.). Cells were collected from the culture medium, enriched with the anti-CD4 microbeads, and EAE-pathogenic CD4 positive T cells were prepared.
# 2 days after starting stress load described in (i) above, the EAE-pathogenic CD4 positive T cells (1.5×10^7 cells) prepared in (ii) above were transferred to the mice by intravenous injection to produce disease modeling mice. Also, mice into which EAE-pathogenic CD4 positive T cells were transferred without stress load, mice into which EAE-pathogenic CD4 positive T cells were not transferred after stress load, mice without stress load and without EAE-pathogenic CD4 positive T cells transfer, were prepared.
# Pathological conditions of EAE in the mice prepared in Example 1 were evaluated with clinical score. Clinical score was determined as described previously (Arima, Y. et al., Cell, 2012, 148, 447-457; Arima, Y. et al., eLife, 2015, 4, e08733; Ogura, H. et al., Immunity, 2008, 29, 628-636). Clinical scores represent the severity of encephalomyelitis symptoms, and the scores increase with increasing the severity. A score of 0 is equivalent to normal state without abnormal findings, and a score of 5 is equivalent to death.
# as §2
# [4] = system: specific blood vessels in the boundary area of the third ventricle, thalamus, and dentate gyrus; assay: Cell accumulation at the specific blood vessels of disease modeling mice (immunohistochemistry, flow cytometry); conditions: 0.2 μL of 2 mg/ml microinjected at the specific blood vessels 4 days before T cell transfer; FIG. 22
# From the text: Accumulation of MHC class II positive cells and CD4 positive T cells in the mice prepared in Example 1 (1) was investigated. The fifth lumbar vertebra and the brain were removed from the mice 10 days after transferring EAE-pathogenic CD4 positive T cells, embedded in SCEM (SECTION-LAB Co., Ltd.), and sliced to sections with a thickness of 10 μm using a microtome device, CM3050 (Leica Microsystems GmbH). Sections were collected using Cryofilm type IIIC (16UF) (SECTION-LAB Co., Ltd.), subjected to hematoxylin eosin staining, or to immunohistochemical staining with an anti-MHC class II antibody or anti-CD4 antibody, and analyzed by BZ-9000 microscope (KEYENCE Corporation) using HS ALL software in BZ-II analyzer (KEYENCE Corporation).
# Furthermore, brains were removed from the mice 9 days after transferring EAE-pathogenic CD4 positive T cells, dissected into each parts of the cerebellum and brain stem, cortex, and hippocampus and interbrain, and enzymatically digested with Neural Tissue Dissection kit (Miltenyi Biotec Company) to prepare single cell suspension. […] Then, the cells were analyzed using CyAn flow cytometer (Beckman Coulter Corporation), and the obtained data were analyzed using Summit software (Beckman Coulter Corporation) or FlowJo software (Tree Star, Inc.). […]
# [5] = system: dopamine/noradrenergic neurons; assay: Immunostaining of third ventricular regions of chemically sympathectomized mice (tyrosine hydroxylase, phosphorylated CREB); conditions: 0.2 μL of 2 mg/ml microinjected at the specific blood vessels 4 days before T cell transfer, 10 days after transfer, FIG. 21
# Description: 0.2 μL each of 6-hydroxydopamine (6-OHDA) hydrochloride (2 mg/ml), which is a neurotoxin denaturalizing dopamine/noradrenergic neurons, or a vehicle 0.02% ascorbic acid was microinjected at the specific blood vessels of C57BL/6 mice 4 days before transferring EAE-pathogenic CD4 positive T cells (2 days before stress load), in the same way as in the Example 3 (2). Subsequently, induction of sleep disorder and transfer of EAE-pathogenic CD4 positive T cells were performed in the same way as in the Example 1 (1).
# Photographs of the immunostained third ventricular regions of chemically sympathectomized mice 10 days after transferring EAE-pathogenic CD4 positive T cells are shown in FIG. 21. The immunostaining was performed with an anti-tyrosine hydroxylase antibody or anti-phosphorylated CREB antibody. 6-OHDA reduced tyrosine hydroxylase-positive sympathetic neurons, and suppressed phosphorylation of CREB induced by noradrenergic receptor-mediated signal transduction.
compound,measurement,setting,value
Nc1ncnc2c1ncn2[C@@H]1O[C@H](COP(=O)(O)OP(=O)(O)OP(=O)(O)O)[C@@H](O)[C@H]1O [ATP],"phosphorylated cfos, that is, neural activation, in the PVN and DMH","[1]; microinjected at the specific blood vessels of mice with sleep disorder (IFN-γ+IL-17A 50 ng each; ATP 2 μg), FIG. 30",activated
Clc1cccc(-c2nnnn2Cc2cccnc2)c1Cl [A438079],mortality,[2]; FIG. 35A,improved
same,gastroenteritis (bloody stool scores),[2]; FIG. 35B,improved
same,neural activation in the PVN and DMH (phosphorylated cfos),"[1]; 1 μg microinjected together with IL-6 and IL-17A at the specific blood vessels of mice with sleep disorder, FIG. 34",suppressed
"NCc1cc(=O)[nH]o1 [Muscimol, muscimol]",mortality,"[3]; 0.25 mg/mL microinjected into the DMH 5 days after T cell transfer, 10 days after transfer, FIG. 29B",remarkably improved
same,bloody stool scores,"[3]; 0.25 mg/mL microinjected into the DMH 5 days after T cell transfer, 10 days after transfer, FIG. 29C",remarkably improved
same,clinical scores,"[3]; 0.25 mg/mL microinjected into the DMH 5 days after T cell transfer, vehicle saline, FIG. 29A",remarkably improved
Cc1c(OCC(F)(F)F)ccnc1C[S+]([O-])c1nc2ccccc2[nH]1 (stereo not shown) [lansoprazole],mortality 10 days after the transfer,"[3]; 30 mg/kg body weight orally daily after transfer, control CMC, FIG. 6B",remarkably reduced
same,bloody stool scores,"[3]; 30 mg/kg body weight orally daily after transfer, control CMC, FIG. 6C",remarkably reduced
same,clinical scores,"[3]; 30 mg/kg body weight orally daily after transferring EAE-pathogenic CD4 positive T cells, control carboxymethyl cellulose, FIG. 6A",remarkably reduced
"Cl.NCCc1cc(O)c(O)cc1O [6-OHDA, 6-hydroxydopamine hydrochloride]",mortality,"[3]; 0.2 μL of 2 mg/ml microinjected at the specific blood vessels 4 days before T cell transfer, 10 days after transfer, FIG. 23B",improved
same,clinical scores,"[3]; 0.2 μL of 2 mg/ml microinjected at the specific blood vessels 4 days before T cell transfer, FIG. 23A",improved
same,accumulation of CD4 positive T cells at the specific blood vessels,[4],suppressed
same,accumulation of CD11b positive MHC class II-highly expressing cells at the specific blood vessels,[4],suppressed
same,phosphorylation of CREB,[5],suppressed
same,tyrosine hydroxylase-positive sympathetic neurons,[5]; vehicle 0.02% ascorbic acid,reduced
